Read-outs that look alike come from different tables or passages of the source.

The source of these data is patent US20240059655A1, “HETEROCYCLIC G-PROTEIN-COUPLED RECEPTOR 52 (GPR52) AGONISTS” (Board of Regents, The University of Texas System, priority 2020, published 2024).

In assay [1] the target is T1, human GPR52 (Homo sapiens (Human), UniProt Q9Y2T5). Kind of assay: Glosensor cAMP assay in HEK293 cells transiently expressing human GPR52. The assay is classed as cell-based.
Target sequence in this assay (Q9Y2T5 whole entry): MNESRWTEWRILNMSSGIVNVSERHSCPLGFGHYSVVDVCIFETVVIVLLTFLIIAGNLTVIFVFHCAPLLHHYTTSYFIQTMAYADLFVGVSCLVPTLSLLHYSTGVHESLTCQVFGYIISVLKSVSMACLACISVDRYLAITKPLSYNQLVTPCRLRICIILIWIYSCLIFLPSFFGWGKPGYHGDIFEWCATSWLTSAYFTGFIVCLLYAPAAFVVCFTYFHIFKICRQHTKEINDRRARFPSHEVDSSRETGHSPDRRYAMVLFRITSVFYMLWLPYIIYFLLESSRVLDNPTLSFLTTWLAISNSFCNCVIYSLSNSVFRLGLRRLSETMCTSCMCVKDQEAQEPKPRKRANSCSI
The target of assay [2] is T1, human GPR52. Kind of assay: TANGO β-arrestin recruitment assay in HTLA cells expressing GPR52 TANGO construct. To be noted: read-out: β-Arrestin Recruitment Emax (%).
Target sequence in this assay (Q9Y2T5 whole entry, looked up, change not shown): as the sequence (Q9Y2T5 whole entry) above
Assay [3] concerns GPR52. As to conditions: relative to compound 4a.
Protocol: Bias factor calculations. Mean efficacy (Emax) and potency (EC50) were taken from at least three independent experiments for all compounds tested in both the cAMP and β-arrestin recruitment assays. Formulas for bias factor calculations were adapted from Kenakin^37. […] A ΔΔ log(Emax/EC50) value for each compound was calculated by subtraction of Δ log(Emax/EC50)β-arrestin from Δ log(Emax/EC50)cAmP. The inverse log of this ΔΔ log(Emax/EC50) value is the G protein bias factor. Conversely, the β-arrestin bias factor is calculated from the inverse log of ΔΔ log(Emax/EC50) when Δ log(Emax/EC50)cAmP is subtracted from Δ log(Emax/EC50)β-arrestin.
The mark [4] stands for this setting: HEK293, cAMP assay, relative to compound 4 as 100% and 0.5% DMSO as 0%, mean ± SEM, "—" not detected, read-out: Emax (%).

Regarding `COC(=O)C(NC(=O)c1cccc(Nc2cc(Cc3cccc(C(F)(F)F)c3)ccn2)c1)[C@@H](C)O` (stereo in doubt) [PW0673, Methyl (3-((4-(3-(trifluoromethyl)benzyl)pyridin-2-yl)amino)benzoyl)-D-allothreoninate], the Emax in assay [1] (setting [4]) stood at 164 ± 12%.
Regarding `O=C(N[C@@H](CO)C(O)c1ccccc1)c1cccc(Nc2cc(Cc3cccc(C(F)(F)F)c3)ccn2)c1` (stereo in doubt) [PW0675, N-((1S)-1,3-Dihydroxy-1-phenylpropan-2-yl)-3-((4-(3-(trifluoromethyl)benzyl)pyridin-2-yl)amino)benzamide], in assay [1] (setting [4]), the Emax stood at 188 ± 11%.
For `O=C(NCCO)c1cccc2c1CCN2c1ccnc(Cc2cc(F)cc(C(F)(F)F)c2)n1` [Compound 12a, 1-(2-(3-Fuoro-5-(trifluoromethyl)benzyl)pyrimidin-4-yl)-N-(2-hydroxyethyl)indoline-4-carboxamide], in assay [1] (setting [4]), the Emax came out at 144%.
In the case of `O=C(NCCO)c1cccc2c1CCN2c1nccc(Cc2cc(F)cc(C(F)(F)F)c2)n1` [Compound 12d, 1-(4-(3-Fluoro-5-(trifluoromethyl)benzyl)pyrimidin-2-yl)-N-(2-hydroxyethyl)indoline-4-carboxamide], the Emax in assay [1] (setting [4]) was determined as 138 ± 8%.
For `Cc1c(Cc2cc(F)cc(C(F)(F)F)c2)cnnc1N1CCc2c(C(=O)NCCO)cccc21` [Compound 12e, 1-(5-(3-Fluoro-5-(trifluoromethyl)benzyl)-4-methylpyridazin-3-yl)-N-(2-hydroxyethyl)indoline-4-carboxamide], the “decreased EC50 (loss of potency) on adding a 2-substituent to compound 12b” value in assay [1] is listed as > 4 fold. In assay [1] (HEK293), this compound yielded an Emax of 119 ± 6%.
The compound `O=C(NCCO)c1cccc2c1CCN2c1nncc(Cc2cc(F)cc(C(F)(F)F)c2)c1Cl` [Compound 12f, 1-(4-Chloro-5-(3-fluoro-5-(trifluoromethyl)benzyl)pyridazin-3-yl)-N-(2-hydroxyethyl)indoline-4-carboxamide] displayed a maximal response (Emax) in assay [1] (HEK293) of 97 ± 7%. Besides, the “decreased EC50 (loss of potency) on adding a 2-substituent to compound 12b” value in assay [1] (cAMP EC50) was > 4 fold.
In the case of `O=C(c1cc(F)cc(C(F)(F)F)c1)c1cc(N2CCc3c(C(=O)NCCO)cccc32)ncn1` [Compound 25b, 1-(6-(3-Fluoro-5-(trifluoromethyl)benzoyl)pyrimidin-4-yl)-N-(2-hydroxyethyl)indoline-4-carboxamide], the Emax in assay [1] (setting [4]) worked out at 22 ± 3%.
In the case of `O=C(c1cccc(C(F)(F)F)c1)c1cc(N2CCc3c(C(=O)NCCO)cccc32)ncn1` [Compound 25c, N-(2-Hydroxyethyl)-1-(6-(3-(trifluoromethyl)benzoyl)pyrimidin-4-yl)indoline-4-carboxamide], the Emax in assay [1] (setting [4]) is 22 ± 4%.
The same measure, in the same setting: for `O=C(NCCO)c1cccc2c1CCN2c1nccc(C(O)c2cc(F)cc(C(F)(F)F)c2)n1` (stereo not drawn) [Compound 25d] the value was 130 ± 9%.
On to `O=C(NCCO)c1cccc2c1CCN2c1cc(C(O)c2cc(F)cc(C(F)(F)F)c2)ncn1` (stereo not drawn) [Compound 25e], for which the Emax in assay [1] (setting [4]) is 134 ± 28%.
Same read-out and setting: the figure for `O=C(NCCO)c1cccc2c1CCN2c1nccc(C(F)c2cc(F)cc(C(F)(F)F)c2)n1` (stereo not drawn) [Compound 25g, 1-(4-(Fluoro(3-fluoro-5-(trifluoromethyl)phenyl)methyl)pyrimidin-2-yl)-N-(2-hydroxyethyl)indoline-4-carboxamide] is 144 ± 9%; for `O=C(NCCO)c1cccc2c1CCN2c1cc(C(F)c2cccc(C(F)(F)F)c2)ncn1` (stereo not drawn) [Compound 25i, 1-(6-(Fluoro(3-(trifluoromethyl)phenyl)methyl)pyrimidin-4-yl)-N-(2-hydroxyethyl)indoline-4-carboxamide] it is 83 ± 5%.
Take `O=C(NCCO)c1cccc2c1CCN2c1cc(Nc2cccc(C(F)(F)F)c2)ncn1` [Compound 25j]: the Emax in assay [1] (setting [4]) was 81 ± 2%.
Regarding `O=C(NCCO)c1cccc2c1CCN2c1cc(Oc2cccc(C(F)(F)F)c2)ncn1` [Compound 25k, N-(2-Hydroxyethyl)-1-(6-(3-(trifluoromethyl)phenoxy)pyrimidin-4-yl)indoline-4-carboxamide], the Emax in assay [1] (setting [4]) came to 99 ± 4%.
Take `O=C(NCCO)c1cccc2c1CCN2c1cc(Sc2cccc(C(F)(F)F)c2)ncn1` [Compound 25l]: the Emax in assay [1] (setting [4]) is 123 ± 6%.
For `O=C(c1cccc2c1CCN2c1cc(Cc2cc(F)cc(C(F)(F)F)c2)ncn1)N1CC(O)C1` [Compound 30e, (1-(6-(3-Fluoro-5-(trifluoromethyl)benzyl)pyrimidin-4-yl)indolin-4-yl)(3-hydroxyazetidin-1-yl)methanone], in assay [1] (setting [4]), the Emax was found to be 111 ± 10%.
In the case of `O=C(c1cccc2c1CCN2c1cc(Cc2cc(F)cc(C(F)(F)F)c2)ncn1)N(CCO)CCO` [Compound 30g, 1-(6-(3-Fluoro-5-(trifluoromethyl)benzyl)pyrimidin-4-yl)-N,N-bis(2-hydroxyethyl)indoline-4-carboxamide], in assay [1] (setting [4]), the Emax stood at 119 ± 15%.
Consider `O=C(N[C@H]1CC[C@H](O)CC1)c1cccc(Nc2cc(Cc3cccc(C(F)(F)F)c3)ccn2)c1` [PW0674, N-((1r,4R)-4-Hydroxycyclohexyl)-3-((4-(3-(trifluoromethyl)benzyl)pyridin-2-yl)amino)benzamide], for which, in assay [1] (HEK293), the Emax came out at 131 ± 13%.
As for `O=C(NC(CO)CO)c1cccc(Nc2cc(Cc3cccc(C(F)(F)F)c3)ccn2)c1` [PW0676, N-(1,3-Dihydroxypropan-2-yl)-3-((4-(3-(trifluoromethyl)benzyl)pyridin-2-yl)amino)benzamide], in assay [1] (HEK293), the Emax worked out at 214 ± 19%. For the same compound, in assay [2], the Emax was determined as 125 ± 12%. For the same compound, in assay [3], the “G Protein Bias Factor” value came to 66.3 and the “β-Arrestin Bias Factor” value was 0.015.
In the same order, the values of `O=C(NCC(O)CO)c1cccc(Nc2cc(Cc3cccc(C(F)(F)F)c3)ccn2)c1` (stereo not drawn) [PW0677, N-(2,3-Dihydroxypropyl)-3-((4-(3-(trifluoromethyl)benzyl)pyridin-2-yl)amino)benzamide] are 268 ± 12%, 127 ± 7%, 63.2 and 0.016.
`O=C(c1cccc(Nc2cc(Cc3cccc(C(F)(F)F)c3)ccn2)c1)N1CCOCC1` [PW0823] returned an Emax in assay [1] (HEK293) of 93 ± 7%.
In turn, `O=C(NCC(F)F)c1cccc(Nc2cc(Cc3cccc(C(F)(F)F)c3)ccn2)c1` [PW0824] returned an Emax in assay [1] (HEK293) of 152 ± 7%.
The same measure, in the same setting: the figure for `COCCNC(=O)c1cccc(Nc2cc(Cc3cccc(C(F)(F)F)c3)ccn2)c1` [PW0825, N-(2-Methoxyethyl)-3-((4-(3-(trifluoromethyl)benzyl)pyridin-2-yl)amino)benzamide] is 131 ± 15%; for `O=C(NCCCCO)c1cccc(Nc2cc(Cc3cccc(C(F)(F)F)c3)ccn2)c1` [PW0832, N-(4-Hydroxybutyl)-3-((4-(3-(trifluoromethyl)benzyl)pyridin-2-yl)amino)benzamide] it is 129 ± 8%.
Same read-out and setting: for `Cc1c(Nc2cc(Cc3ccc(Cl)cc3F)ccn2)cccc1C(=O)NCCO` [PW0868, 3-((4-(4-Chloro-2-fluorobenzyl)pyridin-2-yl)amino)-N-(2-hydroxyethyl)-2-methylbenzamide] the value was 131 ± 8%.
